Data: patent publication US20180250284A1, “QUINOLINE DERIVATIVES FOR USE IN TREATING LEUKODYSTROPHY AND TREATMENT METHOD” (GEORG-AUGUST-UNIVERSITÄT GÖTTINGEN STIFTUNG ÖFFENTLICHEN …, priority 2015, published 2018)

Assays:
[1] = test system: Cnp-Cre Pex5^fl/fl Rag1^−/− mice; test: balanced beam test (motor coordination / walking ability); assay type: in vivo; settings: 25 mg/kg oral gavage 6 out 7 days/week from age 6 weeks to month 6; vs H2O treated controls; significant from the age of 4 months
Procedure: Cnp-Cre Pex5^fl/fl Rag1^−/− mice received either H2O (Ctrl, n=18) or laquinimod (25 mg/kg, n=11) at 6 out 7 days/week by oral gavage. Treatment was initiated at the age of 6 weeks. Unpaired t test, **<0.01; ***<0.001. Cnp-Cre Pex5^fl/fl Rag1^−/− mice were generated by crossbreeding of Cnp-Cre Pex5^fl/fl mice with Rag1^−/− mice. Mice of both sexes received 25 mg/kg Laquinimod or water by oral gavage 6 out 7 days/week and treatment was initiated at the age of 6 weeks. Motor coordination was assessed with a balanced beam test. Mice were put on a beam (width 1.5 cm) and allowed to run toward a hiding box. After a training period, the time to pass a distance of 0.6 m was measured (three repeats per time point).

[2] = test system: Cnp-Cre Pex5^fl/fl Rag1^−/− mice; test: histological and morphological analyses of the corpus callosum at month 6; assay type: in vivo; settings: 25 mg/kg oral; for extent of demyelination / myelin loss in the corpus callosum: luxol fast blue, vs vehicle/water treated mice
Procedure: FIG. 2: Quantification of axonal damage (APP), microglia/macrophage cell numbers (Mac3), demyelination and adult oligodendrocytes (NogoA) in the corpus callosum (CC) of CNP-Cre Pex^fl/fl RAG1^−/− mice at the age of 6 months. Cnp-Cre Pex5^fl/fl Rag1^−/− mice were generated by crossbreeding of Cnp-Cre Pex5^fl/fl mice with Rag1^−/− mice. Mice of both sexes received 25 mg/kg Laquinimod or water by oral gavage 6 out 7 days/week and treatment was initiated at the age of 6 weeks. Mice were perfused transcardially at month 6 with cold PBS followed by 4% paraformaldehyde (PFA). Brains and spinal cords were post-fixed for 2 days and then paraffin-embedded. Sections between 0.5-1 μm were cut and processed for immunohistochemistry (IHC) according to standard protocols. Demyelination was evaluated on sections stained with luxol fast blue (LFB). For the staining of macrophages the antibody MAC387 (mouse anti-L1 antibody MAC387, GeneTex, 1:150) was used. Axonal density was evaluated on Bielschowsky silver stained sections. That is, in order to identify the mechanisms how laquinimod is beneficial in the CNP-Cre Pex^fl/fl RAG1^−/− mouse model, we analyzed and quantified the extent of demyelination, axonal damage and macrophage and adult oligodendrocyte numbers in immunohistochemically stained sections of the corpus callosum at month 6 in laquinimod and vehicle treated mice. […] The extent of demyelination was diminished and the numbers of preserved adult oligodendrocytes were increased, see FIG. 2.

[3] = test system: microglia cells stimulated with 1 μg/ml LPS and 5 mM ATP; test: IL1β ELISA of supernatants of LPS/ATP stimulated microglia cells; assay type: cell-based; settings: at high concentrations of laquinimod
Procedure: FIG. 3: Titration of laquinimod to microglia cells stimulated with 1 μg/ml LPS and 5 mM ATP. Microglia cell supernatants were analyzed for IL1β by ELISA.

[4] = test system: Knockout mice (Cnp-Pex5, Cnp1-Cre*PEX5flox/flox, Pex5^flox/flox*Cnp-Cre/+, Nestin-Pex5, NEX-Pex5, GFAP-Pex5^−/−); test: effect of various doses of laquinimod on Pex5 knockout mice; assay type: in vivo
Procedure: Knockout mice of one or more of the following strains are used: Cnp-Pex5, Cnp1-Cre*PEX5flox/flox, Pex5^flox/flox*Cnp-Cre/+, Nestin-Pex5, NEX-Pex5, and GFAP-Pex5^−/−.
The effect of various doses of laquinimod on knockout mice is assessed.

[5] = test system: Patients with leukodystrophy; test: trial of laquinimod in leukodystrophy human patients; assay type: in vivo; settings: capsules orally once daily
Procedure: A trial is conducted to evaluate the safety, tolerability and clinical effect of laquinimod in leukodystrophy human patients. Patients with leukodystrophy are enrolled. The patient has been affirmatively diagnosed to have leukodystrophy. […] Capsule(s) containing laquinimod and/or matching placebo are administered orally once daily at dosages approved by the study Safety Committee. Patients are randomized into one of the treatment arms in a ratio that allows for reaching an overall target enrollment.

Patients with PBD = test: trial of laquinimod for PBD in human patients; assay type: in vivo
Procedure: A trial is conducted to evaluate the safety, tolerability and clinical effect of laquinimod for PBD in human patients. Patients with PBD are enrolled. The patient has been affirmatively diagnosed to have PBD. […] Capsule(s) containing laquinimod and/or matching placebo are administered orally once daily at dosages approved by the study Safety Committee. Patients are randomized into one of the treatment arms in a ratio that allows for reaching an overall target enrollment.

[6] = in vivo; cited from earlier work
[7] = test system: multiple sclerosis (MS) patients; settings: two phase III trials; cited from earlier work
cuprizone model = settings: cited from earlier work
EAE model = settings: cited from earlier work
[8] = age of 6 months, vs vehicle treated mice
[9] = capsules orally once daily, human patients

## CCN(C(=O)c1c(O)c2c(Cl)cccc2n(C)c1=O)c1ccccc1 [laquinimod, 5-chloro-N-ethyl-4-hydroxy-1-methyl-2-oxo-N-phenyl-1,2-dihydroquinoline-3-carboxamide]
[1]
  walking ability / motor coordination on elevated beam test: significantly better
[2]; age of 6 months
  extent of demyelination / myelin loss in the corpus callosum: less extensive
[2]; age of 6 months, listed as Laquinimod
  extent of demyelination / myelin loss in the corpus callosum: diminished
[2]; [8]
  axonal damage (APP positive axons) in the corpus callosum: significantly reduced
  microglia/macrophage cell numbers (Mac3) in the corpus callosum: significantly reduced
  numbers of preserved adult oligodendrocytes (NogoA) in the corpus callosum: increased
[2]; vs water treated controls
  microglia activation: reduced
  preservation of axons (axonal loss): better preserved
[2]; vs water treated controls, listed as Laquinimod
  microglia activation: less abundant
[3]
  amount of IL1β in LPS stimulated microglia cell cultures: significantly reduced
[4]
  accumulation of lipid droplets and VLCFA, depletion of plasmalogens, impairment of myelin, axonal degeneration, astrogliosis, and/or microgliosis: reduces
  cognitive function: improves
  hindlimb ataxia, kyphosis, hindlimb paresis, forelimb ataxia, tremor, hindlimb paralysis, and/or passiveness: reduces
  motor function: improves
[5]
  motor symptoms of leukodystrophy: alleviates or eliminates
  one or more symptoms of leukodystrophy: alleviates or eliminates
Patients with PBD; [9]
  motor symptoms of PBD: alleviates or eliminates
  one or more symptoms of PBD: alleviates or eliminates
Patients with PBD; humans, Example 3.1
  symptoms of Zellweger Syndrome (ZS): alleviates or eliminates
Patients with PBD; humans, Example 3.2
  symptoms of Neonatal Adrenoleukodystrophy (NALD): alleviates or eliminates
Patients with PBD; humans, Example 3.3
  symptoms of Infantile Refsum Disease (IRD): alleviates or eliminates
[6]
  oral bioavailability: high
[7]
  safety and tolerability profile: favorable
Cuprizone model
  demyelination: reduces
  microglia and astrocyte activation: inhibits
EAE model
  axonal injury: reduces
  microglia and astrocyte activation: inhibits
